Values of other authors, collected in publication PMC6574176 (Biomaterials, 2019).

Details: rapidly bio-eliminated

CC1(C)C(/C=C/C=C/C=C/C=C2\N(CCCCS(=O)(=O)O)c3ccc4ccccc4c3C2(C)C)=[N+](CCCCS(=O)(=O)[O-])c2ccc3ccccc3c21 [free ICG, Indocyanine Green]
t1/2 of free ICG: 2 to 4 min
